In patent US20070166710A1, “Methods for inhibiting adipogenesis and for treating type 2 diabetes” (priority 2003, published 2007):
Substitutions are numbered along the chain they refer to.

How the values were obtained:
Foxa-2 expression [1] = experiment: Foxa-2 expression in primary adipocytes from lean wildtype C57B6 mice, semiquantitative RT-PCR; assay type: cell-based; conditions: 60 hours; leptin 100 ng/ml, TNF-α 5 ng/ml, adiponectin 500 ng/ml, glucagon 100 nM, glucose 20 mmol/L
Method: (§1) Total RNA was extracted from cells and EBs using Trizol following manufacturer's instructions (Life Technologies, Inc.). […] The cDNAs provided templates for polymerase chain reactions (PCRs) using specific primers at annealing temperatures ranging between 60 and 65° C. in the presence of dNTPs, [α^-32P]dCTP, and Taq DNA polymerase. […] Primary adipocytes were isolated as described by Rodbell (1964) J. Biol. Chem. 239:375-380. […] (1995) J. Cell. Biochem. 58:435-463. The reaction was stopped by spinning through dinonyl […] oil and the radioactivity quantified by scintillation counting. […] (1995) Am. J. Physiol. 268:[…]-[…]. Fatty acid de novo synthesis was analyzed by saponification of total lipids as described by […] et al. (1978) J. […] Incorporation into lipid glycerol was calculated by subtracting fatty acid radioactive label from total lipid radioactive label. Primary adipocytes were isolated from lean wildtype C57B6 mice and cultured in MEM medium (control) or in the presence of insulin (100 nM; 24 hours and 60 hours, respectively) or rosiglitazone (50 μM), WY14,643 (100 μM), dexametason (1 μM), leptin (100 ng/ml), TNF-α (5 ng/ml), adiponectin (500 ng/ml) and glucagons (100 nM) for 60 hours. Gene expression was measured by semiquantitative RT-PCR. Steady state mRNA levels of Hprt were used as a control and indicate that each lane contains similar amounts of mRNA. Reactions were also assayed in the absence of reverse transcriptase, showing that mRNA was not contaminated with genomic DNA.

Foxa-2 expression [2] = experiment: Foxa-2 expression in primary adipocytes from ob/ob mice, semiquantitative RT-PCR; assay type: cell-based; conditions: 60 hours
Method: as §1, with “ob/ob” for “lean wildtype C57B6”, “μM;” for “nM;”, “dexamethason” for “dexametason”, “TNF-α,” for “TNF-α”, “rnRNA.” for “mRNA.”

Foxa-2 (transfected) = molecular target: T1, Foxa-2 (transfected) (UniProt P32182); experiment: cell_activity
T1 sequence: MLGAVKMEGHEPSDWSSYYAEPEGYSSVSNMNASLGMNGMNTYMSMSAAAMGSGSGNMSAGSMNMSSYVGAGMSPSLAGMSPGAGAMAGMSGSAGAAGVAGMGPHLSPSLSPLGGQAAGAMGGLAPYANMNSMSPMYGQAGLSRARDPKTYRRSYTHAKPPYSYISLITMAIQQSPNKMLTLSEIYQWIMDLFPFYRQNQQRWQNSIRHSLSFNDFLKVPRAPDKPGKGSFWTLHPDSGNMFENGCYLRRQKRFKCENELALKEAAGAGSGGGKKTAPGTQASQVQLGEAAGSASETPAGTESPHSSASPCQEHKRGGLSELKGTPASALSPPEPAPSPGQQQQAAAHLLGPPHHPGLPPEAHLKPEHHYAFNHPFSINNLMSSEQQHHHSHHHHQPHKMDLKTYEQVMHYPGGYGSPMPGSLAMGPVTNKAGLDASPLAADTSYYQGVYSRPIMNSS

Foxa-2 activity = experiment: Transactivation assay, HepG2 cells transfected with Foxa-2 and pPepck-Luc or p6xCdx-TkLuc; assay type: cell-based, rat; conditions: coincubation, inhibitor 10 μM, insulin 100 nM
Method: Transfections and Transactivation assay. HepG2 cells were grown to 60-70% confluence in a 24-well dish and transfected with 50 ng of each reporter gene (p6xCdx-TkLuc or pPEPCK-Luc), pCMV-β-Gal as internal reference and the expression vectors for wildtype or mutant Foxa-1 and Foxa-2 and human Akt1/Akt2 using the transfection reagent Fugene6 (Roche). Cells were grown for 48 hours and luciferase activity was measured using the Luciferase Detection System (Promega). Luciferase was normalized for transfection efficiency by β-galactosidase activity.
To analyze whether Foxa-2 activity is regulated by insulin, HepG2 cells were transfected with a Foxa-2 expression vector and either plasmid pPepck-Luc or p6xCdx-TkLuc that contain a 621 bp promoter framnent of the human PEPCK gene or six Foxa-2 binding sites of the Cdx-2 gene upstream of a minimal promoter and the luciferase gene, respectively.

Pepck, G6pc and Igfbp-1 = experiment: mRNA levels of Foxa-2 target genes in primary hepatocytes (RT-PCR); assay type: cell-based; conditions: inhibitor together with insulin
Method: FIGS. 10a-d depict the effect of insulin on Foxa-2 activity. FIG. 10a is a bar graph depicting relative Foxa-2 activity in HepG2 cells transfected with an expression vector for Foxa-2 and […]-Luc (gray bars) or p6xCdx-TkLuc (black bars). Cells were treated with insulin alone or in the presence of Ly294002 or PD98059. FIG. 10b is a bar graph depicting relative Foxa-2 activity in HepG2 cells transfected with p6xCdx-TkLuc and treated with insulin alone or in the presence of Ly294002 or PD98059. […] FIG. 10d is a bar graph depicting relative Foxa-2 activity in HepG2 cells transfected with an expression vector for Foxa-1, Foxa-2, Akt or Akt[…] alone or in combination, using p6xCdx-TkLuc as reporter gene. In all experiments luciferase activity was normalized to β-Gal activity. […] Levels of mRNA were analyzed to determine whether inhibition of Foxa-2 target gene expression by insulin is controlled at a transcriptional or posttranscriptional level. The mRNA levels of Pepck, G6pc and Igfbp-1 in primary hepatocytes that were cultured either in the presence or absence of insulin, PI3-kinase or MAPKK1 inhibitors were measured.

Foxa-2 [3] = experiment: Immunofluorescence of subcellular distribution of endogenous Foxa-2 in HepG2 cells; assay type: cell-based; conditions: inhibitor in the presence of insulin (50 nM)
Method: Immunofluorescence microscopy. Cells were fixed for 30 minutes at room temperature with 2% paraformaldehyde. For immunofluorescent detection of Foxa-1 or Foxa-2, fixed cells were incubated with respective polyclonal antibodies (1:100) (Ruiz i Altaba et al. (1993) Mech. Dev. 44: 91-108) overnight at 4° C. After washing, the cells were treated with anti rabbit IgG secondary antibody linked to Alexa Fluor 488 (Molecular Probes). Immunofluorescent staining was visualized using laser-scanning micrsocopy. To determine whether Akt-induced phosporylation of Foxa-2 has an effect on the subcellular distribution of this transcription factor, the following experiment was performed. HepG2 cells were grown to 60% confluency and endogenous Foxa-1 and Foxa-2 proteins were visualized by immunofluorescence after staining with anti Foxa-1 and Foxa-2 antibodies. Cells were either examined in the absence or presence of insulin (50 nM) and/or Ly294002 or PD98059, and after transfection with either Akt1 or Akt2 expression vectors (FIG. 5B). […] Treatment of cells with MAPKK1 inhibitor PD98059 had no effect on insulin stimulated nuclear exclusion of Foxa-2. The subcellular distribution of Foxa-2 in cells that were stimulated with insulin and expressed a dominant negative form of Akt (Akt[…]) were resistant to nuclear exclusion. […]

[4] = molecular target: T2, GST-Foxa-2 (recombinant, from E. coli BL21, pGEX-4T2) (UniProt P32182)
T2 sequence: T1 sequence

[5] = molecular target: T3, GST-Foxa-2T156A (recombinant, from E. coli BL21, pGEX-4T2) (UniProt P32182)
T3 sequence: T1 sequence with T156A

Foxa-2 [6] = experiment: Nuclear Foxa-2 in perfused livers, immunoblotting; assay type: in vivo, mice; conditions: liver perfusion experiments

Molecule: IL6: factor with effects on adipocyte differentiation and metabolism
- De novo expression of Foxa-2 (Foxa-2 expression [1]): could not be induced
- Foxa-2 expression (Foxa-2 expression [2]): unable to raise

Molecule: leptin: factor with effects on adipocyte differentiation and metabolism
- De novo expression of Foxa-2 (Foxa-2 expression [1]): could not be induced
- Foxa-2 expression (Foxa-2 expression [2]): unable to raise

Molecule: PEPCK promoter (621 bp) luciferase reporter
- activity (fold activation) (Foxa-2 (transfected); HepG2, about 6-fold in FIG. 11c): 5

Molecule: Pref-1 promoter reporter, upstream Foxa element deleted
- activity (% reduction of activity) (Foxa-2 (transfected); 3T3-L1 luciferase reporter): 50

Molecule: COc1cccc(-c2cc(=O)c3ccccc3o2)c1N [PD98059, reference compound]
- insulin mediated decrease of Foxa-2 activity (Foxa-2 activity): did not influence
- mRNA levels of Pepck, G6pc and Igfbp-1 (Pepck, G6pc and Igfbp-1): significantly reduced
- subcellular localization of endogenous Foxa-2 / insulin stimulated nuclear exclusion (Foxa-2 [3]): no effect

Molecule: HA-Akt (human Akt1 fused to an N-terminal HA-tag, expressed from pCMV-HA-Akt)
- phosphorylation in an in vitro kinase assay ([gamma-32P]-ATP, autoradiography) [4]: wildtype Foxa-2 was phosphorylated by either Akt or myrAkt
- phosphorylation in an in vitro kinase assay ([gamma-32P]-ATP, autoradiography) [5]: no phosphorylation could be observed using Foxa-2T156A protein as substrate

Molecule: 6xCdx-TkLuc (six Foxa-2 sites of the Cdx-2 gene)
- activity (fold activation) (Foxa-2 (transfected); HepG2, decreased by insulin or Akt): 5

Molecule: glucagon: hormone tested on Foxa-2 expression and nuclear localization
- De novo expression of Foxa-2 (Foxa-2 expression [1]): could not be induced
- Foxa-2 expression (Foxa-2 expression [2]): unable to raise
- Foxa-2 nuclear localization (Foxa-2 [6]): does not affect

Molecule: constitutively active Akt, HA-tagged (pCMV-HA-myrAkt)
- phosphorylation in an in vitro kinase assay ([gamma-32P]-ATP, autoradiography) [4]: wildtype Foxa-2 was phosphorylated by either Akt or myrAkt
- phosphorylation in an in vitro kinase assay ([gamma-32P]-ATP, autoradiography) [5]: no phosphorylation could be observed using Foxa-2T156A protein as substrate

Molecule: Pref-1 promoter (1.3 kb) luciferase reporter
- activity (fold activation) (Foxa-2 (transfected); 3T3-L1 luciferase reporter): 6

Molecule: TNF-α
- De novo expression of Foxa-2 (Foxa-2 expression [1]): could not be induced
- Foxa-2 expression (Foxa-2 expression [2]): unable to raise

B1: adiponectin: factor with effects on adipocyte differentiation and metabolism (protein, UniProt Q15848 19-244, looked up)
Adiponectin: ETTTQGPGVLLPLPKGACTGWMAGIPGHPGHNGAPGRDGRDGTPGEKGEKGDPGLIGPKGDIGETGVPGAEGPRGFPGIQGRKGEPGEGAYVYRSAFSVGLETYVTIPNMPIRFTKIFYNQQNHYDGSTGKFHCNIPGLYYFAYHITVYMKDVKVSLFKKDKAMLFTYDQYQENNVDQASGSVLLHLEVGDQVWLQVYGEGERNGLYADNDNDSTFTGFLLYHDTN
- De novo expression of Foxa-2 (Foxa-2 expression [1]): could not be induced
- Foxa-2 expression (Foxa-2 expression [2]): unable to raise
